According to article PMC8744835, “Sterically Hindered Quaternary Phosphonium Salts (QPSs): Antimicrobial Activity and Hemolytic and Cytotoxic Properties” (International Journal of Molecular Sciences, 2021):

Tests used:
[1] = test system: Trichophyton mentagrophytes var. gypseum 1773; experiment: Fungicidal activity, serial dilution technique; format: cell-based; conditions: Tm, average of three ± SD, - means non-active; for MBC / MIC: Trichophyton mentagrophytes; for MBC: read-out: Minimum Bactericidal and Fungicidal Concentration (MBC, MFC), Tm; for MIC: read-out: Minimum Inhibitory Concentration (MIC), Tm
Procedure, shortened: (§1)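 Serial dilution in Mueller–Hinton Broth 2 with an inoculum of 3.0 × 10^5 cfu/mL, 37 °C, read every 24 h for 5 days; three repeats. MIC is the lowest concentration inhibiting visible growth of the test organism.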

[2] = test system: Candida albicans ATCC 10231; experiment: Fungicidal activity, serial dilution technique; format: cell-based; conditions: average of three ± SD, - means non-active
Procedure, shortened: as §1

[3] = test system: methicillin-resistant S. aureus MRSA-2; experiment: Antimicrobial activity, serial dilution technique in Mueller–Hinton Broth 2; format: cell-based, Staphylococcus aureus; conditions: - means non-active; for Minimum Inhibitory Concentration (MIC), MRSA-2: MRSA-2 (resistant to beta-lactams)
Procedure, shortened: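 Antimicrobial activity against methicillin-susceptible Staphylococcus aureus MRSA-2, a beta-lactam-resistant clinical isolate from a sinusitis patient at the Republican Clinical Hospital (Kazan), was assessed by serial dilution in Mueller–Hinton Broth 2. The inoculum was 3.0 × 10^5 cfu/mL. Cultures were incubated at 37 °C and read every 24 h for 5 days, in three repeat experiments.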

[4] = test system: methicillin-resistant S. aureus MRSA-1; experiment: as above; format: cell-based, Staphylococcus aureus; conditions: - means non-active; for Minimum Inhibitory Concentration (MIC), MRSA-1: MRSA-1 (resistant to fluoroquinolones and beta-lactams)
Procedure, shortened: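 Antimicrobial activity against methicillin-susceptible Staphylococcus aureus MRSA-1, a hospital isolate from a chronic tonsillitis patient that is resistant to fluoroquinolones and beta-lactams, was determined by serial dilution in Mueller–Hinton Broth 2. The bacterial load was 3.0 × 10^5 cfu/mL, incubation was at 37 °C, and growth was recorded every 24 h for 5 days.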

[5] = test system: Escherichia coli ATCC 25922; experiment: as above; format: cell-based; conditions: average of three ± SD, - means non-active
[6] = test system: Escherichia coli ATCC 25922; experiment: as above; format: cell-based; conditions: average of three ± SD, - means non-active; for MIC: Escherichia coli, ATCC25922, Ec, read-out: Minimum Inhibitory Concentration (MIC), Ec
Procedure, shortened: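 Compounds were serially diluted in Mueller–Hinton Broth 2 and inoculated at 3.0 × 10^5 cfu/mL. Cultures were then incubated at 37 °C with growth recorded daily for 5 days. The MIC was taken as the minimum concentration inhibiting growth, from three experiments.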

[7] = test system: Enterococcus faecalis ATCC 2921; experiment: as above; format: cell-based; conditions: Ef; average of three ± SD; - means non-active
Procedure, shortened: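 Antibacterial activity against Enterococcus faecalis ATCC 2921 was assessed by serial dilution in Mueller–Hinton Broth 2 with a bacterial load of 3.0 × 10^5 cfu/mL. Cultures were incubated at 37 °C, with growth recorded every 24 h for 5 days, and the experiment was performed three times.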

[8] = test system: Pseudomonas aeruginosa ATCC 9027; experiment: as above; format: cell-based; conditions: average of three ± SD, - means non-active; for MBC / MIC: Pseudomonas aeruginosa, ATCC9027, Pa; for MBC: read-out: Minimum Bactericidal and Fungicidal Concentration (MBC, MFC), Pa; for MIC: read-out: Minimum Inhibitory Concentration (MIC), Pa
[9] = test system: Staphylococcus aureus ATCC 6538P FDA 209P; experiment: as above; format: cell-based; conditions: average of three ± SD, - means non-active
Procedure, shortened: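 Antimicrobial activity against Staphylococcus aureus ATCC 6538P FDA 209P was measured by serial dilution in Mueller–Hinton Broth 2 at a bacterial load of 3.0 × 10^5 cfu/mL. Cultures were incubated at 37 °C, growth was recorded every 24 h for 5 days, and the experiment was done three times.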

[10] = test system: Bacillus cereus ATCC 10702 NCTC 8035; experiment: as above; format: cell-based; conditions: average of three ± SD, - means non-active
Procedure, shortened: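 Antibacterial activity against Bacillus cereus ATCC 10702 NCTC 8035 was measured by serial dilution in Mueller–Hinton Broth 2 at a bacterial load of 3.0 × 10^5 cfu/mL. Cultures were kept at 37 °C and growth was read every 24 h for 5 days. The experiment was done three times, and MIC and bactericidal concentrations were determined.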

Row | SMILES | Minimum Bactericidal and Fungicidal Concentration (MBC, MFC), Tm [1] [µg/mL] | Minimum Inhibitory Concentration (MIC), Tm [1] [µg/mL] | Minimum Bactericidal and Fungicidal Concentration (MBC, MFC), Ca [2] [µg/mL] | Minimum Inhibitory Concentration (MIC), Ca [2] [µg/mL] | Minimum Inhibitory Concentration (MIC), MRSA-2 [3] [µg/mL] | Minimum Bactericidal and Fungicidal Concentration (MBC, MFC), MRSA-2 [3] [µg/mL] | Minimum Inhibitory Concentration (MIC), MRSA-1 [4] [µg/mL] | Minimum Bactericidal and Fungicidal Concentration (MBC, MFC), MRSA-1 ([4]; MRSA-1) [µg/mL] | Minimum Bactericidal and Fungicidal Concentration (MBC, MFC), Ec [5] [µg/mL] | Minimum Inhibitory Concentration (MIC), Ec [6] [µg/mL] | Minimum Bactericidal and Fungicidal Concentration (MBC, MFC), Ef [7] [µg/mL] | Minimum Inhibitory Concentration (MIC), Ef [7] [µg/mL] | Minimum Bactericidal and Fungicidal Concentration (MBC, MFC), Pa [8] [µg/mL] | Minimum Inhibitory Concentration (MIC), Pa [8] [µg/mL] | Minimum Bactericidal and Fungicidal Concentration (MBC, MFC), Sa [9] [µg/mL] | Minimum Inhibitory Concentration (MIC), Sa [9] [µg/mL] | Minimum Bactericidal and Fungicidal Concentration (MBC, MFC), Bc [10] [µg/mL] | Minimum Inhibitory Concentration (MIC), Bc [10] [µg/mL] | MBC [1] [µg/mL] | MIC [1] [µg/mL] | further results
1 | CCCCCCCCCCCCCCC[P+](C(C)(C)C)(C(C)(C)C)C(C)(C)C [Compound 15b] | 62.5 ± 5.2 | 62.5 ± 5.5 | 15.6 ± 1.2 | 1.9 ± 0.1 | 0.5 ± 0.03 | 0.5 ± 0.04 | 0.3 ± 0.01 | 0.3 ± 0.01 | 3.9 ± 0.2 | 3.9 ± 0.2 | 3.9 ± 0.2 | 0.5 ± 0.04 | 3.9 ± 0.3 | 3.9 ± 0.2 | 0.5 ± 0.03 | 0.2 ± 0.01 | 15.6 ± 1.3 | 0.5 ± 0.03 |  |  | 
2 | CCCCCCCCCCCCCCCC[P+](C(C)(C)C)(C(C)(C)C)C(C)(C)C [Compound 16b] |  |  | 3.9 ± 0.2 | 3.9 ± 0.2 | 0.5 ± 0.03 | 3.9 ± 0.2 | 1.9 ± 0.1 | 15.6 ± 1.2 | 1.9 ± 0.1 | 1.9 ± 0.1 | 0.5 ± 0.03 | 0.5 ± 0.04 | 62.5 ± 5.3 | 3.9 ± 0.02 | 0.5 ± 0.03 | 0.5 ± 0.03 | 31.3 ± 2.4 | 1.9 ± 0.1 | 62.5 ± 5.5 | 62.5 ± 5.6 | 
3 | CCCCCCCCCCCCCCCCC[P+](C(C)(C)C)(C(C)(C)C)C(C)(C)C [Compound 17a] |  |  |  |  | 0.9 ± 0.07 | 0.9 ± 0.06 | 0.9 ± 0.06 | 0.9 ± 0.07 |  |  | 1.9 ± 0.1 | 1.9 ± 0.1 |  |  |  | 0.2 ± 0.01 |  | 0.9 ± 0.07 | 125 ± 10 | 125 ± 10 | MBC ([2]; Candida albicans, ATCC10231, Ca, read-out: Minimum Bactericidal and Fungicidal Concentration (MBC, MFC), Ca): 3.9 ± 0.2 µg/mL; MIC ([2]; Candida albicans, ATCC10231, Ca, read-out: Minimum Inhibitory Concentration (MIC), Ca): 1.9 ± 0.1 µg/mL; MBC ([5]; Escherichia coli, ATCC25922, Ec, read-out: Minimum Bactericidal and Fungicidal Concentration (MBC, MFC), Ec): 15.6 ± 1.3 µg/mL; MIC [6]: 15.6 ± 1.2 µg/mL; MBC [8]: 7.8 ± 0.7 µg/mL; MIC [8]: 7.8 ± 0.5 µg/mL; MBC ([9]; Staphylococcus aureus, Sa, read-out: Minimum Bactericidal and Fungicidal Concentration (MBC, MFC), Sa): 0.5 ± 0.03 µg/mL; MBC ([10]; Bacillus cereus, Bc, read-out: Minimum Bactericidal and Fungicidal Concentration (MBC, MFC), Bc): 15.6 ± 1.2 µg/mL
4 | CCCCCCCCCCCCCCCCCC[P+](C(C)(C)C)(C(C)(C)C)C(C)(C)C [Compound 18a] |  |  | 3.9 ± 0.2 | 1.9 ± 0.1 | 0.9 ± 0.07 | 0.9 ± 0.07 | 0.9 ± 0.07 |  | 15.6 ± 1.1 |  | 0.9 ± 0.07 | 0.9 ± 0.07 |  |  | 0.9 ± 0.07 | 0.9 ± 0.08 | 31.3 ± 2.5 | 7.8 ± 0.6 | 125 ± 9 | 125 ± 11 | MBC ([4]; Staphylococcus aureus, MRSA, MRSA-1, read-out: Minimum Bactericidal and Fungicidal Concentration (MBC, MFC), MRSA-1): 15.6 ± 1.2 µg/mL; MIC [6]: 15.6 ± 1.3 µg/mL; MBC [8]: 62.5 ± 5.6 µg/mL; MIC [8]: 15.6 ± 1.2 µg/mL
5 | CCCCCCCCCCCCCCCCCC[P+](C(C)(C)C)(C(C)(C)C)C(C)(C)C [Compound 18b] | 250 ± 19 | 250 ± 19 | 15.6 ± 1.2 | 7.8 ± 0.7 | 3.9 ± 0.2 | 3.9 ± 0.3 | 7.8 ± 0.6 | 15.6 ± 1.2 | 62.5 ± 5.4 | 15.6 ± 1.3 | 3.9 ± 0.2 | 1.9 ± 0.1 | 31.3 ± 2.5 | 15.6 ± 1.3 | 3.9 ± 0.2 | 1.9 ± 0.1 | 125 ± 11 | 31.3 ± 2.2 |  |  | 
